Data on 19 compounds can be found in ChEMBL document CHEMBL4411323 (Bioorg Med Chem, 2019).

In the test the target is Serine/threonine-protein kinase B-raf (Homo sapiens, UniProt P15056, V600E). The test can be described thus: Inhibition of human BRAF V600E mutant using myelin basic protein as substrate measured after 40 mins in presence of [gamma33P-ATP] by scintillation counting method.
Sequence of Serine/threonine-protein kinase B-raf (P15056 2-766 V600E limits assumed): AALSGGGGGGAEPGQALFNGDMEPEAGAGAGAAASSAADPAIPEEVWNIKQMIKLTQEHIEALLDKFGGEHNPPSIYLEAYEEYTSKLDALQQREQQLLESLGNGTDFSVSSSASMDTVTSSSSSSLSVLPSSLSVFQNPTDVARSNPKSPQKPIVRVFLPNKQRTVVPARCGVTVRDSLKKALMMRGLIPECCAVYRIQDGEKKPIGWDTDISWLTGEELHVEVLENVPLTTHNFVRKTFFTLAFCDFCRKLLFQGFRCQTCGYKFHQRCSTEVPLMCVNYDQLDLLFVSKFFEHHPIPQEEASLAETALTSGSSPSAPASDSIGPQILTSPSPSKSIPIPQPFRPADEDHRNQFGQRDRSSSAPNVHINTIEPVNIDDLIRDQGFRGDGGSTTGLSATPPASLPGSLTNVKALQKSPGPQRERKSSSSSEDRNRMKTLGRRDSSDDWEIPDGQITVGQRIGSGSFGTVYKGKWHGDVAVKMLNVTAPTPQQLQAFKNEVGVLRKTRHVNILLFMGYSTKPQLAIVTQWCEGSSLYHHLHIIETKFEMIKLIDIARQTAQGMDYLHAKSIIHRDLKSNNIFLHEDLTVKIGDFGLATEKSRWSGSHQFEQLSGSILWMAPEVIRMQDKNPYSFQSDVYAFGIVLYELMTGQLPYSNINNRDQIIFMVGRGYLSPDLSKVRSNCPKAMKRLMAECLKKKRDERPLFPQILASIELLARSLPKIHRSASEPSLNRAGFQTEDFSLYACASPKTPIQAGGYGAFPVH
On to `O=C(Nc1cccc(-n2cc(-c3ccncc3)c(-c3cc(O)cc(Cl)c3)n2)c1)Nc1cc(C(F)(F)F)cc(C(F)(F)F)c1`, for which the IC50 was 2110 nM.

With `COc1cc(Cl)cc(-c2nn(-c3cccc(NC(=O)c4ccc(N5CCOCC5)c(C(F)(F)F)c4)c3)cc2-c2ccncc2)c1`, the IC50 was found to be 348 nM.

In the case of `COc1cc(Cl)cc(-c2nn(-c3cccc(NC(=O)c4cc(C(F)(F)F)cc(C(F)(F)F)c4)c3)cc2-c2ccncc2)c1`, the IC50 amounted to 7410 nM.

In the case of `O=C(Nc1cccc(-n2cc(-c3ccncc3)c(-c3cc(O)cc(Cl)c3)n2)c1)c1ccc(N2CCOCC2)c(C(F)(F)F)c1`, the IC50 amounted to 14 nM.

On to `COc1cc(Cl)cc(-c2nn(-c3cccc(NC(=O)Nc4cccc(C(F)(F)F)c4)c3)cc2-c2ccncc2)c1`, for which the IC50 amounted to 475 nM.

Turning to `O=C(Nc1cccc(-n2cc(-c3ccncc3)c(-c3cc(O)cc(Cl)c3)n2)c1)Nc1ccc(Cl)c(Cl)c1`, the IC50 was 45 nM.

On to `O=C(Nc1cccc(-n2cc(-c3ccncc3)c(-c3cc(O)cc(Cl)c3)n2)c1)c1cc(C(F)(F)F)cc(C(F)(F)F)c1`, for which the IC50 worked out at 212 nM.

`COc1cc(Cl)cc(-c2nn(-c3cccc(NC(=O)c4ccccc4)c3)cc2-c2ccncc2)c1`: the IC50 was 3690 nM.

In the case of `O=C(Nc1cccc(-n2cc(-c3ccncc3)c(-c3cc(O)cc(Cl)c3)n2)c1)Nc1cccc(C(F)(F)F)c1`, the IC50 was found to be 30 nM.

For `O=C(Nc1cccc(-n2cc(-c3ccncc3)c(-c3cc(O)cc(Cl)c3)n2)c1)c1ccccc1`, the IC50 stood at 26 nM.

As to `COc1cc(Cl)cc(-c2nn(-c3cccc(NC(=O)Nc4ccc(Cl)c(Cl)c4)c3)cc2-c2ccncc2)c1`, the IC50 was 251 nM.

With `O=C(Nc1cccc(-n2cc(-c3ccncc3)c(-c3cc(O)cc(Cl)c3)n2)c1)c1cccc(C(F)(F)F)c1`, the IC50 stood at 38 nM.

For the compound `COc1cc(Cl)cc(-c2nn(-c3cccc(NC(=O)c4cccc(C(F)(F)F)c4)c3)cc2-c2ccncc2)c1`, the IC50 came out at 160 nM.

Regarding `COc1cc(Cl)cc(-c2nn(-c3cccc(NC(=O)Nc4ccccc4)c3)cc2-c2ccncc2)c1`, the 50% inhibitory concentration (IC50) is 488 nM.

Regarding `O=C(Nc1cccc(-n2cc(-c3ccncc3)c(-c3cc(O)cc(Cl)c3)n2)c1)Nc1ccc(Cl)c(C(F)(F)F)c1`, the IC50 amounted to 7 nM.

For the compound `COc1cc(Cl)cc(-c2nn(-c3cccc(NC(=O)Nc4ccc(Cl)c(C(F)(F)F)c4)c3)cc2-c2ccncc2)c1`, the IC50 was found to be 189 nM.

For the compound `O=C(Nc1ccccc1)Nc1cccc(-n2cc(-c3ccncc3)c(-c3cc(O)cc(Cl)c3)n2)c1`, the IC50 was 919 nM.

`O=C(Nc1cccc(-n2cc(-c3ccncc3)c(-c3cc(O)cc(Cl)c3)n2)c1)c1ccc(Cl)c(Cl)c1`: the IC50 stood at 47 nM.

For `COc1cc(Cl)cc(-c2nn(-c3cccc(NC(=O)c4ccc(Cl)c(Cl)c4)c3)cc2-c2ccncc2)c1`, the IC50 is 87200 nM.

Usually IC50 stands for the midpoint of a concentration-inhibition curve.
